{"source": "the supplement of paper PMC4862054"}
{"tested_on": "MDA-MB-231", "experiment": "normalised response (% of control), CellTox Green; higher = less cell death (100 = DMSO, 0 = benzethonium chloride kill control)", "conditions": "incubation time: 72 h", "summary_of_the_method": "(§1)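 A 20 µl suspension of breast cancer cells was seeded into each well of 384-well plates containing compound at 5 concentrations in 10-fold steps over a compound-specific 10,000-fold range. After 72 h incubation, CellTox Green fluorescence (485/520 nm) was read first, and CellTiter-Glo luminescence was read after 10 min at room temperature. Each plate was normalised against 0.1 % DMSO (100) and a positive kill control (0), and each value is the normalised signal at one concentration.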", "units": {"normalised response": "%"}}
{"smiles": "O=C(O)CCCCC(CCSCc1ccccc1)SCc1ccccc1", "note": "(stereo unspecified) [CPI-613] (100 nM)", "normalised response": 51.4}
{"smiles": "Nc1nc2[nH]cc(CCc3ccc(C(=O)N[C@@H](CCC(=O)O)C(=O)O)cc3)c2c(=O)[nH]1", "note": "[Pemetrexed] (100 nM)", "normalised response": 87.1}
{"smiles": "Cc1cnc(NC(=O)Nc2cc(Br)c(C)cc2OC[C@@H]2CNCCO2)cn1", "note": "[Rabusertib] (10 nM)", "normalised response": 122}
{"smiles": "CCCCC(=O)OCC(=O)[C@]1(O)Cc2c(O)c3c(c(O)c2[C@@H](O[C@H]2C[C@H](NC(=O)C(F)(F)F)[C@H](O)[C@H](C)O2)C1)C(=O)c1c(OC)cccc1C3=O", "note": "[Valrubicin] (50 nM)", "normalised response": 122}
{"smiles": "N#Cc1ccc(C(c2ccc(C#N)cc2)n2cncn2)cc1", "note": "[Letrozole] (100 nM)", "normalised response": 79}
{"smiles": "CC[C@H](Nc1ncnc2[nH]cnc12)c1nc2cccc(F)c2c(=O)n1-c1ccccc1", "note": "[GS-1101] (100 nM)", "normalised response": 84.8}
{"smiles": "Nc1ccccc1NC(=O)c1ccc(CNC(=O)OCc2cccnc2)cc1", "note": "[Entinostat] (100 nM)", "normalised response": 103}
{"tested_on": "HCC1599", "experiment": "normalised response (% of control), CellTox Green; higher = less cell death (100 = DMSO, 0 = benzethonium chloride kill control)", "conditions": "incubation time: 72 h", "summary_of_the_method": "as §1", "units": {"normalised response": "%"}}
{"smiles": "O=C(O)CCCCC(CCSCc1ccccc1)SCc1ccccc1", "note": "(stereo unspecified) [CPI-613] (100 nM)", "normalised response": 95.4}
{"smiles": "Nc1nc2[nH]cc(CCc3ccc(C(=O)N[C@@H](CCC(=O)O)C(=O)O)cc3)c2c(=O)[nH]1", "note": "[Pemetrexed] (100 nM)", "normalised response": 91.2}
{"smiles": "Cc1cnc(NC(=O)Nc2cc(Br)c(C)cc2OC[C@@H]2CNCCO2)cn1", "note": "[Rabusertib] (10 nM)", "normalised response": 110}
{"smiles": "CCCCC(=O)OCC(=O)[C@]1(O)Cc2c(O)c3c(c(O)c2[C@@H](O[C@H]2C[C@H](NC(=O)C(F)(F)F)[C@H](O)[C@H](C)O2)C1)C(=O)c1c(OC)cccc1C3=O", "note": "[Valrubicin] (50 nM)", "normalised response": 115}
{"smiles": "N#Cc1ccc(C(c2ccc(C#N)cc2)n2cncn2)cc1", "note": "[Letrozole] (100 nM)", "normalised response": 102}
{"smiles": "CCCS(=O)(=O)Nc1ccc(F)c(C(=O)c2c[nH]c3ncc(-c4ccc(Cl)cc4)cc23)c1F", "note": "[Vemurafenib] (100 nM)", "normalised response": 94}
{"smiles": "CC[C@H](Nc1ncnc2[nH]cnc12)c1nc2cccc(F)c2c(=O)n1-c1ccccc1", "note": "[GS-1101] (100 nM)", "normalised response": 94}
{"smiles": "CC(=O)Nc1cccc(-n2c(=O)n(C3CC3)c(=O)c3c(Nc4ccc(I)cc4F)n(C)c(=O)c(C)c32)c1", "note": "[Trametinib] (2.5 nM)", "normalised response": 117}
{"smiles": "Nc1ccccc1NC(=O)c1ccc(CNC(=O)OCc2cccnc2)cc1", "note": "[Entinostat] (100 nM)", "normalised response": 96.6}
{"tested_on": "MCF-10A", "experiment": "normalised response (% of control), CellTox Green; higher = less cell death (100 = DMSO, 0 = benzethonium chloride kill control)", "conditions": "incubation time: 72 h", "summary_of_the_method": "as §1", "units": {"normalised response": "%"}}
{"smiles": "O=C(O)CCCCC(CCSCc1ccccc1)SCc1ccccc1", "note": "(stereo unspecified) [CPI-613] (100 nM)", "normalised response": 104}
{"smiles": "Nc1nc2[nH]cc(CCc3ccc(C(=O)N[C@@H](CCC(=O)O)C(=O)O)cc3)c2c(=O)[nH]1", "note": "[Pemetrexed] (100 nM)", "normalised response": 103}
{"smiles": "Cc1cnc(NC(=O)Nc2cc(Br)c(C)cc2OC[C@@H]2CNCCO2)cn1", "note": "[Rabusertib] (10 nM)", "normalised response": 103}
{"smiles": "CCCCC(=O)OCC(=O)[C@]1(O)Cc2c(O)c3c(c(O)c2[C@@H](O[C@H]2C[C@H](NC(=O)C(F)(F)F)[C@H](O)[C@H](C)O2)C1)C(=O)c1c(OC)cccc1C3=O", "note": "[Valrubicin] (50 nM)", "normalised response": 106}
{"smiles": "N#Cc1ccc(C(c2ccc(C#N)cc2)n2cncn2)cc1", "note": "[Letrozole] (100 nM)", "normalised response": 105}
{"smiles": "CCCS(=O)(=O)Nc1ccc(F)c(C(=O)c2c[nH]c3ncc(-c4ccc(Cl)cc4)cc23)c1F", "note": "[Vemurafenib] (100 nM)", "normalised response": 91.9}
{"smiles": "CC(=O)Nc1cccc(-n2c(=O)n(C3CC3)c(=O)c3c(Nc4ccc(I)cc4F)n(C)c(=O)c(C)c32)c1", "note": "[Trametinib] (2.5 nM)", "normalised response": 80.7}
{"tested_on": "CAL-51", "experiment": "normalised response (% of control), CellTox Green; higher = less cell death (100 = DMSO, 0 = benzethonium chloride kill control)", "conditions": "incubation time: 72 h", "summary_of_the_method": "as §1", "units": {"normalised response": "%"}}
{"smiles": "O=C(O)CCCCC(CCSCc1ccccc1)SCc1ccccc1", "note": "(stereo unspecified) [CPI-613] (100 nM)", "normalised response": 75.1}
{"smiles": "Nc1nc2[nH]cc(CCc3ccc(C(=O)N[C@@H](CCC(=O)O)C(=O)O)cc3)c2c(=O)[nH]1", "note": "[Pemetrexed] (100 nM)", "normalised response": 88.1}
{"smiles": "Cc1cnc(NC(=O)Nc2cc(Br)c(C)cc2OC[C@@H]2CNCCO2)cn1", "note": "[Rabusertib] (10 nM)", "normalised response": 106}
{"smiles": "CCCCC(=O)OCC(=O)[C@]1(O)Cc2c(O)c3c(c(O)c2[C@@H](O[C@H]2C[C@H](NC(=O)C(F)(F)F)[C@H](O)[C@H](C)O2)C1)C(=O)c1c(OC)cccc1C3=O", "note": "[Valrubicin] (50 nM)", "normalised response": 76.7}
{"smiles": "N#Cc1ccc(C(c2ccc(C#N)cc2)n2cncn2)cc1", "note": "[Letrozole] (100 nM)", "normalised response": 103}
{"smiles": "CCCS(=O)(=O)Nc1ccc(F)c(C(=O)c2c[nH]c3ncc(-c4ccc(Cl)cc4)cc23)c1F", "note": "[Vemurafenib] (100 nM)", "normalised response": 76.9}
{"smiles": "CC[C@H](Nc1ncnc2[nH]cnc12)c1nc2cccc(F)c2c(=O)n1-c1ccccc1", "note": "[GS-1101] (100 nM)", "normalised response": 93.3}
{"smiles": "CC(=O)Nc1cccc(-n2c(=O)n(C3CC3)c(=O)c3c(Nc4ccc(I)cc4F)n(C)c(=O)c(C)c32)c1", "note": "[Trametinib] (2.5 nM)", "normalised response": 117}
{"smiles": "Nc1ccccc1NC(=O)c1ccc(CNC(=O)OCc2cccnc2)cc1", "note": "[Entinostat] (100 nM)", "normalised response": 101}
{"tested_on": "CAL-120", "experiment": "normalised response (% of control), CellTiter-Glo; higher = more viable cells (100 = DMSO, 0 = benzethonium chloride kill control)", "conditions": "incubation time: 72 h", "method": "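DSRT, 72 h incubation, CellTox Green / CellTiter-Glo readout. Signal is normalised to DMSO and benzethonium chloride controls. Value is the normalised response at dose 3.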", "units": {"normalised response": "%"}}
{"smiles": "O=C(O)CCCCC(CCSCc1ccccc1)SCc1ccccc1", "note": "(stereo unspecified) [CPI-613] (100 nM)", "normalised response": 98.9}
{"smiles": "Nc1nc2[nH]cc(CCc3ccc(C(=O)N[C@@H](CCC(=O)O)C(=O)O)cc3)c2c(=O)[nH]1", "note": "[Pemetrexed] (100 nM)", "normalised response": 105}
{"smiles": "Cc1cnc(NC(=O)Nc2cc(Br)c(C)cc2OC[C@@H]2CNCCO2)cn1", "note": "[Rabusertib] (10 nM)", "normalised response": 109}
{"smiles": "CCCCC(=O)OCC(=O)[C@]1(O)Cc2c(O)c3c(c(O)c2[C@@H](O[C@H]2C[C@H](NC(=O)C(F)(F)F)[C@H](O)[C@H](C)O2)C1)C(=O)c1c(OC)cccc1C3=O", "note": "[Valrubicin] (50 nM)", "normalised response": 98.4}
{"smiles": "N#Cc1ccc(C(c2ccc(C#N)cc2)n2cncn2)cc1", "note": "[Letrozole] (100 nM)", "normalised response": 99.8}
{"smiles": "CCCS(=O)(=O)Nc1ccc(F)c(C(=O)c2c[nH]c3ncc(-c4ccc(Cl)cc4)cc23)c1F", "note": "[Vemurafenib] (100 nM)", "normalised response": 93.3}
{"smiles": "CC[C@H](Nc1ncnc2[nH]cnc12)c1nc2cccc(F)c2c(=O)n1-c1ccccc1", "note": "[GS-1101] (100 nM)", "normalised response": 94.6}
{"smiles": "CC(=O)Nc1cccc(-n2c(=O)n(C3CC3)c(=O)c3c(Nc4ccc(I)cc4F)n(C)c(=O)c(C)c32)c1", "note": "[Trametinib] (2.5 nM)", "normalised response": 101}
{"smiles": "Nc1ccccc1NC(=O)c1ccc(CNC(=O)OCc2cccnc2)cc1", "note": "[Entinostat] (100 nM)", "normalised response": 98.2}
